Source: US6667387B1, “HCV core peptides” (priority 1992, dated 2003)
Ends that are not written are not given here. * marks the point of attachment. Biotin = O=C1N[C@H]2[C@H](CS[C@H]2CCCCC(=O)*)N1

What was measured:
[1] = ELISA with seronegative / negative control sera (specificity); format: binding, human
In short: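 Specificity readout is OD at 450 nm (HRP goat anti-human Ig, TMB/H2O2, sulfuric acid stop), with ≥0.250 counted positive. Seronegative donor sera (typically 1:100, 1 h, 37° C) were applied to casein-blocked wells coated with peptide directly or via streptavidin capture of biotinylated peptide.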

[2] = system: antibodies in sera from HCV-seropositive donors; assay: ELISA with HCV antibody-positive sera (biotinylated peptides on streptavidin- or avidin-coated plates, unbiotinylated peptides coated directly); format: binding, human; settings: for PEPTIDE ELISA (O.D.): Table 12, biotinylated 20-mers
In short: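 Peptides coated either directly at 2–5 or 3 μg/ml in carbonate buffer pH 9.6, or biotinylated at 1 μg/ml on streptavidin-coated wells (3 μg/ml). Plates casein-blocked, then human sera (1:100 or 1:20) incubated 1 h at 37° C. Bound antibody detected with HRP anti-human Ig/TMB, read as OD450.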

[3] = Table 8, serum 1782 (blood donor), Avidin
[4] = Table 8, serum 1784 (blood donor), Avidin
[5] = Table 8, serum 1785 (blood donor), Avidin
[6] = Table 8, serum 1794 (blood donor), Avidin
[7] = Table 8, serum 8243 (HCV), Avidin
[8] = Table 8, serum 8247 (HCV), Avidin
[9] = Table 8, serum 8248 (HCV), Avidin
[10] = Table 8, serum 8269 (HCV), Avidin
[11] = Table 8, serum 8273 (HCV), Avidin
[12] = Table 8, serum 8278 (HCV), Avidin
[13] = Table 8, serum 8285 (HCV), Avidin
[14] = Table 8, serum 8290 (HCV), Avidin
[15] = Table 8, serum 8291 (HCV), Avidin

ETWKKPDYEPPVVHGCPLPP
optical density (450 nm) ([1]; Table 4G, negative serum): 0.001
optical density (450 nm) ([1]; Table 5, sample 1747 (negative), peptide concentration 0.01 micrograms per milliliter, listed as HCV peptide XVIII): 0.042
optical density (450 nm) ([1]; Table 5, sample 1747 (negative), peptide concentration 0.03 micrograms per milliliter, listed as HCV peptide XVIII): 0.058
optical density (450 nm) ([1]; Table 5, sample 1747 (negative), peptide concentration 0.1 micrograms per milliliter, listed as HCV peptide XVIII): 0.044
optical density (450 nm) ([1]; Table 5, sample 1747 (negative), peptide concentration 0.3 micrograms per milliliter, listed as HCV peptide XVIII): 0.061
optical density (450 nm) ([1]; Table 5, sample 1747 (negative), peptide concentration 1.0 micrograms per milliliter, listed as HCV peptide XVIII): 0.042
optical density (450 nm) ([1]; Table 5, sample 1747 (negative), peptide concentration 3.0 micrograms per milliliter, listed as HCV peptide XVIII): 0.047
optical density (450 nm) ([1]; Table 5, sample 1781 (negative), peptide concentration 0.01 micrograms per milliliter, listed as HCV peptide XVIII): 0.045
optical density (450 nm) ([1]; Table 5, sample 1781 (negative), peptide concentration 0.03 micrograms per milliliter): 0.051
optical density (450 nm) ([1]; Table 5, sample 1781 (negative), peptide concentration 0.1 micrograms per milliliter, listed as HCV peptide XVIII): 0.048
optical density (450 nm) ([1]; Table 5, sample 1781 (negative), peptide concentration 0.3 micrograms per milliliter, listed as HCV peptide XVIII): 0.048
optical density (450 nm) ([1]; Table 5, sample 1781 (negative), peptide concentration 1.0 micrograms per milliliter, listed as HCV peptide XVIII): 0.048
optical density (450 nm) ([1]; Table 5, sample 1781 (negative), peptide concentration 3.0 micrograms per milliliter, listed as HCV peptide XVIII): 0.053
optical density (450 nm) [1, 3]: 0.053
optical density (450 nm) [1, 4]: 0.047
optical density (450 nm) [1, 5]: 0.047
optical density (450 nm) [1, 6]: 0.104
optical density (450 nm) ([2]; Table 4G, serum 1, 20-fold dilution): 2.691
optical density (450 nm) ([2]; Table 4G, serum 33, 20-fold dilution): 1.813
optical density (450 nm) ([2]; Table 4G, serum 39, 20-fold dilution): 0.213
optical density (450 nm) ([2]; Table 4G, serum 47, 20-fold dilution): 2.611
optical density (450 nm) ([2]; Table 4G, serum 79, 20-fold dilution): 2.105
optical density (450 nm) ([2]; Table 4G, serum 83, 20-fold dilution): 1.232
optical density (450 nm) ([2]; Table 4G, serum 88, 20-fold dilution): 1.858
optical density (450 nm) ([2]; Table 4G, serum 89, 20-fold dilution): 2.309
optical density (450 nm) ([2]; Table 4G, serum 91, 20-fold dilution): 1.132
optical density (450 nm) ([2]; Table 4G, serum 99, 20-fold dilution): 1.526
optical density (450 nm) ([2]; Table 4G, serum 104, 20-fold dilution): 1.998
optical density (450 nm) ([2]; Table 4G, serum 105, 20-fold dilution): 2.053
optical density (450 nm) ([2]; Table 4G, serum 110, 20-fold dilution): 2.065
optical density (450 nm) ([2]; Table 4G, serum 111, 20-fold dilution): 1.542
optical density (450 nm) ([2]; Table 4G, serum 112, 20-fold dilution): 1.408
optical density (450 nm) ([2]; Table 4G, serum 116, 20-fold dilution): 1.978
optical density (450 nm) ([2]; Table 4G, serum 120, 20-fold dilution): 2.031
optical density (450 nm) ([2]; Table 5, sample 8242 (positive), peptide concentration 0.01 micrograms per milliliter, listed as HCV peptide XVIII): 1.185
optical density (450 nm) ([2]; Table 5, sample 8242 (positive), peptide concentration 0.03 micrograms per milliliter, listed as HCV peptide XVIII): 1.188
optical density (450 nm) ([2]; Table 5, sample 8242 (positive), peptide concentration 0.1 micrograms per milliliter, listed as HCV peptide XVIII): 0.946
optical density (450 nm) ([2]; Table 5, sample 8242 (positive), peptide concentration 0.3 micrograms per milliliter, listed as HCV peptide XVIII): 0.873
optical density (450 nm) ([2]; Table 5, sample 8242 (positive), peptide concentration 1.0 micrograms per milliliter, listed as HCV peptide XVIII): 0.839
optical density (450 nm) ([2]; Table 5, sample 8242 (positive), peptide concentration 3.0 micrograms per milliliter, listed as HCV peptide XVIII): 0.749
optical density (450 nm) ([2]; Table 5, sample 8243 (positive), peptide concentration 0.01 micrograms per milliliter, listed as HCV peptide XVIII): 0.462
optical density (450 nm) ([2]; Table 5, sample 8243 (positive), peptide concentration 0.03 micrograms per milliliter, listed as HCV peptide XVIII): 0.611
optical density (450 nm) ([2]; Table 5, sample 8243 (positive), peptide concentration 0.1 micrograms per milliliter, listed as HCV peptide XVIII): 0.661
optical density (450 nm) ([2]; Table 5, sample 8243 (positive), peptide concentration 0.3 micrograms per milliliter, listed as HCV peptide XVIII): 0.629
optical density (450 nm) ([2]; Table 5, sample 8243 (positive), peptide concentration 1.0 micrograms per milliliter, listed as HCV peptide XVIII): 0.627
optical density (450 nm) ([2]; Table 5, sample 8243 (positive), peptide concentration 3.0 micrograms per milliliter, listed as HCV peptide XVIII): 0.671
optical density (450 nm) ([2]; Table 5, sample 8318 (positive), peptide concentration 0.01 micrograms per milliliter, listed as HCV peptide XVIII): 1.711
optical density (450 nm) ([2]; Table 5, sample 8318 (positive), peptide concentration 0.03 micrograms per milliliter, listed as HCV peptide XVIII): 2.308
optical density (450 nm) ([2]; Table 5, sample 8318 (positive), peptide concentration 0.1 micrograms per milliliter, listed as HCV peptide XVIII): 2.409
optical density (450 nm) ([2]; Table 5, sample 8318 (positive), peptide concentration 0.3 micrograms per milliliter, listed as HCV peptide XVIII): 2.392
optical density (450 nm) ([2]; Table 5, sample 8318 (positive), peptide concentration 1.0 micrograms per milliliter, listed as HCV peptide XVIII): 2.396
optical density (450 nm) ([2]; Table 5, sample 8318 (positive), peptide concentration 3.0 micrograms per milliliter, listed as HCV peptide XVIII): 2.391
optical density (450 nm) ([2]; Table 5, sample 8326 (positive), peptide concentration 0.01 micrograms per milliliter, listed as HCV peptide XVIII): 1.848
optical density (450 nm) ([2]; Table 5, sample 8326 (positive), peptide concentration 0.03 micrograms per milliliter, listed as HCV peptide XVIII): 2.219
optical density (450 nm) ([2]; Table 5, sample 8326 (positive), peptide concentration 0.1 micrograms per milliliter, listed as HCV peptide XVIII): 2.331
optical density (450 nm) ([2]; Table 5, sample 8326 (positive), peptide concentration 0.3 micrograms per milliliter, listed as HCV peptide XVIII): 2.331
optical density (450 nm) ([2]; Table 5, sample 8326 (positive), peptide concentration 1.0 micrograms per milliliter, listed as HCV peptide XVIII): 2.331
optical density (450 nm) ([2]; Table 5, sample 8326 (positive), peptide concentration 3.0 micrograms per milliliter, listed as HCV peptide XVIII): 2.315
optical density (450 nm) [2, 7]: 0.118
optical density (450 nm) [2, 8]: 0.046
optical density (450 nm) [2, 9]: 0.905
optical density (450 nm) [2, 10]: 1.513
optical density (450 nm) [2, 11]: 0.052
optical density (450 nm) [2, 12]: 0.052
optical density (450 nm) [2, 13]: 0.146
optical density (450 nm) [2, 14]: 2.323
optical density (450 nm) [2, 15]: 0.049
PEPTIDE ELISA (O.D.) ([2]; serum 0843): 0.127
PEPTIDE ELISA (O.D.) ([2]; serum 8240): 1.511
PEPTIDE ELISA (O.D.) ([2]; serum 8241): 0.273
PEPTIDE ELISA (O.D.) ([2]; serum 8242): 2.453
PEPTIDE ELISA (O.D.) ([2]; serum 8332): 2.290
PEPTIDE ELISA (O.D.) ([2]; serum 8339): 2.757
PEPTIDE ELISA (O.D.) ([2]; serum 8350): 0.182
PEPTIDE ELISA (O.D.) ([2]; serum 8377): 1.378
PEPTIDE ELISA (O.D.) ([2]; serum 8378): 2.337
PEPTIDE ELISA (O.D.) ([2]; serum 8388): 2.358

Bio-Gly-Gly-Gly-Ile-Trp-Gly-Cys-Ser-Gly-Lys-Leu-Ile-Cys-NH2 (Biotin-GGGIWGCSGKLIC-NH2; cysteine pairing not given here) [TM-HIV-1 Bio]
optical density (450 nm) ([1]; Table 1, serum 180, seronegative donor): 0.005
optical density (450 nm) ([1]; Table 1, serum 194, seronegative donor): 0.000
optical density (450 nm) ([1]; Table 1, serum 195, seronegative donor): 0.000
optical density (450 nm) ([1]; Table 1, serum 204, seronegative donor): 0.001
optical density (450 nm) ([1]; Table 6, serum 1733, seronegative blood donor): 0.000
optical density (450 nm) ([1]; Table 6, serum 1747, seronegative blood donor): 0.000
optical density (450 nm) ([1]; Table 6, serum 1784, seronegative blood donor): 0.000
optical density (450 nm) [1, 3]: 0.052
optical density (450 nm) [1, 4]: 0.044
optical density (450 nm) [1, 5]: 0.046
optical density (450 nm) [1, 6]: 0.124
optical density (450 nm) [2, 7]: 0.108
optical density (450 nm) [2, 8]: 0.042
optical density (450 nm) [2, 9]: 0.043
optical density (450 nm) [2, 10]: 0.053
optical density (450 nm) [2, 11]: 0.053
optical density (450 nm) [2, 12]: 0.046
optical density (450 nm) [2, 13]: 0.134
optical density (450 nm) [2, 14]: 0.045
optical density (450 nm) [2, 15]: 0.048
